The record followed here is patent US10106853B2, “CUL4B as predictive biomarker for cancer treatment” (CORNELL UNIVERSITY, priority 2012, dated 2018).

One data set addresses T1, Top1 (Homo sapiens, UniProt P11387).
T1 construct: CPT-induced TOP1 degradation in breast cancer cell lines; host or cells: human breast cancer cell lines BT474, BT20, MCF-7, MDA-MB-231, T47D, Sk-Br-3 (MCF-10A as control)
T1 sequence (P11387 1-765): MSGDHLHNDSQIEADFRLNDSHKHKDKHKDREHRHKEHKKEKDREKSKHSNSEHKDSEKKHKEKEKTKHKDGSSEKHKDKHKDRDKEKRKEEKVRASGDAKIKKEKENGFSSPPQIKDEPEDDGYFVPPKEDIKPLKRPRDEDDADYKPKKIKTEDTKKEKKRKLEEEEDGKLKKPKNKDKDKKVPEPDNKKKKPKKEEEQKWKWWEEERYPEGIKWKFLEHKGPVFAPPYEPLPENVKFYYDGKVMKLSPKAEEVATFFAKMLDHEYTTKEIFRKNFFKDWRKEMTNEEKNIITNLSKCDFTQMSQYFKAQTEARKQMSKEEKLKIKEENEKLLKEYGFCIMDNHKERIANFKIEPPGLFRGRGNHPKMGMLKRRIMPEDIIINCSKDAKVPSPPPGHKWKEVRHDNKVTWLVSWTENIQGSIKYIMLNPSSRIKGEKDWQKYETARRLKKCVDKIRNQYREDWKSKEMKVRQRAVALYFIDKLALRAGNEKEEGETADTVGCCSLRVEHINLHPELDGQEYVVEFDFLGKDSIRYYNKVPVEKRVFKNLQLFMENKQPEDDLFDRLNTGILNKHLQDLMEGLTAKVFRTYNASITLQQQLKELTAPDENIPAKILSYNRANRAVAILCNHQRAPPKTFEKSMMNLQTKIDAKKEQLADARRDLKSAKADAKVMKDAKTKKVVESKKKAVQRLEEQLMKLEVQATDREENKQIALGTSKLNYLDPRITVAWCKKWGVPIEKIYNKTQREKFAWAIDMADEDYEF
The data set is described as follows: CPT-induced TOP1 down regulation assay (immunoblotting). It is filed as cell-based. On the procedure: FIG. 1. CPT-induced TOP1 degradation in breast cancer cell lines. A) Expression of endogenous CUL4A and 4B in breast cancer cell lines. Total cell lysates were prepared from the indicated breast cancer cell lines and subjected to SDS PAGE and immunoblotting with antibodies against CUL4A, 4B and α-tubulin. The non-cancerous MCF-10A cell line was used as a control for comparison. B) CPT-induced TOP1 degradation in breast cancer cell lines. Cells were treated with 12.5 μM CPT or 1% DMSO for 4 hours, replenished with CPT-free fresh medium and incubated at 37° C. for 30 minutes to reverse the formation of TOP1 cleavable complex. Cells were then lysed and immunoblotted with the TOP1 and α-tubulin antibodies.
FIG. 2. CUL4B interacted with Top1 and induced Top1 degradation in the presence of CPT. A) Knockdown of CUL4B impaired CPT-induced Top1 degradation. BT474 cells were infected with lentiviral shCUL4B, shCUL4A or control non-targeting shRNA, and selected for stable CUL4B^k/d or CUL4A^k/d cells upon treatment with puromycin. Following treatment with CPT (50 μM) for 1 hour, cells were replenished with CPT-free fresh medium and incubated at 37° C. for 30 minutes. Top1 degradation was assessed by immunoblotting with an anti-Top1 antibody. Levels of α-tubulin were measured as a loading control. B) Association of CUL4B with Top1 following CPT treatment. BT474 cells were treated with proteosome inhibitor MG132 (15 μM) for 3 hours, and were subjected to crosslinking with 0.2 mM Dithiobis[succinimidyl propionate](DSP) for the last 30 min at room temperature. Cell lysates were prepared, and immunoprecipitated with the anti-Top1 or anti-CUL4B antibodies, and then immunoblotted using antibodies against CUL4B or Top1, respectively. IgG immunoprecipitates served as the negative control. C) Knockdown of CUL4B using a second shCUL4B-2 impaired CPT-induced Top1 degradation. BT474 cells were infected with lentiviral shCUL4B-2, shCUL4A-2 or control non-targeting shRNA and selected for stable CUL4B^k/d or CUL4A^k/d cells upon treatment with puromycin. Following treatment with CPT (50 μM) for 1.5 hr, cells were replenished with CPT-free fresh medium and incubated at 37° C. for 30 min. Top1 degradation was assessed by immunoblotting with the anti-Top1 antibody. Levels of α-tubulin were measured as a loading control. D) CUL4B inactivation sensitized BT474 cells to cytotoxic killing by camptothecin. BT474, BT474-CUL4A^k/d or BT474-CUL4B^k/d cells were synchronized with 1 μM nocodazole for 13 hours released in fresh medium, treated with the indicated concentrations of CPT for three days, and subjected to the XTT assay to measure the cytotoxic responses to CPT. […] The bars indicate the S.E. of six independent experiments. Statistical significance in cellular response to CPT between control BT474 cells and CUL4A^k/d or CUL4B^k/d cells were assessed by a two-tailed unpaired student t-test (***: p<0.001). The same results were obtained with a second lentiviral shRNA for CUL4A and CUL4B, as well as in T47D breast cancer cells. E, F) Knockdown of CUL4B increased the sensitivity of T47D cells to camptothecin. […] Statistical significance in cellular response to camptothecin between control cells and CUL4A^k/d or CUL4B^k/d BT474 cells are assessed by student's t-test.
CPT-induced Top1 degradation was monitored by immunoblotting of the alkaline lysates. […]
For orientation: A western blot detects proteins with antibodies after separation by electrophoresis.

For another data set, the system named is BT474 cells. Kind of data set: Apoptosis by Western blotting of cleaved caspase-3 and PARP. It is filed as cell-based, Human. The conditions noted are these: CUL4B-silenced BT474 cells vs control cells. On the procedure: FIG. 4. Marked enhancement of apoptosis in BT474-CUL4B^k/d cells following CPT treatment. A, B) Control (shCtrl) or CUL4B^k/d BT474 (shCUL4B) cells were treated with indicated concentrations of CPT for 72 hours (A) or 100 nM CPT for 1, 2 and 3 days (B). Cells were then lysed and immunoblotted with antibodies against native or cleaved caspase 3 or PARP to measure the induction of apoptosis. C) Control, CUL4A^k/d and CUL4B^k/d BT474 cells were treated with 100 nM CPT for 3 days. Cell lysates were prepared and immunoblotted with antibodies against native or cleaved PARP.
DNA double stranded breaks are one of the most cytotoxic lesions as persistence of γH2AX foci after the initial induction of DNA damage leads to apoptosis. To examine whether CUL4B knockdown affects the sensitivity of breast cancer cells to CPT-induced apoptosis, BT474 cells were treated with CPT and analyzed for induction of apoptosis, as exemplified by cleavage of caspase-3 and PARP.

Consider `CC[C@@]1(O)C(=O)OCc2c1cc1n(c2=O)Cc2cc3ccccc3nc2-1` [CPT, (S)-4-ethyl-4-hydroxy-1H-pyrano[3′,4′:6,7]indolizino[1,2-b]quinoline-3,14-(4H, 12H)-dione], for which, on Top1 (CUL4A knockdown BT474 cells, CPT 50 μM, 1 hour), the “CPT-induced Top1 degradation compared to control (shCtrl)” value is recorded as “no effect”. Besides, at Top1 (CUL4B-silenced (CUL4B k/d) BT474 cells, CPT 50 μM, 1 hour), the “CPT-induced Top1 degradation” value was “abolished”. Further, at Top1 (breast cancer cells exhibiting elevated levels of CUL4B expression, 12.5 μM CPT, 4 hours), the “Top1 degradation following treatment with CPT” value is “eliminated or markedly destroyed Top1”. Moreover, the “Induction of apoptosis (cleaved caspase-3 and PARP) post-CPT treatment” value with BT474 cells is listed as “robust induction of apoptosis”.

On to “shCUL4B: lentiviral shRNA CUL4B sequence purchased from Sigma Aldrich, reduces CUL4B expression (CCGGGCAGAATTTAAAGAGGGTAAACTCGAGTTTACCCTCTTTAAATTCTGCTTTTT)”, for which, in the data set with Top1 (BT474 cells, lentiviral shRNA, CPT 50 μM, 1 to 1.5 hr), the “Effect of shRNA knockdown on CPT-induced Top1 degradation” value is “impaired”.
